Laboratory results taken from patent publication US20240228458A1, “PYRIMIDINE DERIVATIVE HAVING PROTEIN KINASE INHIBITORY ACTIVITY, AND THERAPEUTIC PHARMACEUTICAL COMPOSITION COMPRISING SAME” (THERAPEX CO., LTD., priority 2021, published 2024).

Columns and labels:
Type in all cases: cell-based
[1] = system: Ba/F3 cells expressing EGFR-wt; assay: Growth inhibition (GI50) of Ba/F3 cells expressing EGFR-wt, Celltiter glo; conditions: Mus musculus, BaF3, 72 h
Procedure, shortened: (§1)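 Antiproliferative activity was assessed in EGFR-mutant or wild-type Ba/F3 cells over 72 h at 37 °C with 5% CO2. Cell viability was determined by CellTiter-Glo, and GI50 taken as the compound concentration inhibiting growth by 50%.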

[2] = system: Ba/F3 cells expressing del19/T790M/C797S (EGFR-DTC); assay: Growth inhibition (GI50) of Ba/F3 cells expressing del19/T790M/C797S (EGFR-DTC), Celltiter glo; conditions: Mus musculus, BaF3, 72 h
Procedure, shortened: as §1

[3] = system: Ba/F3 cells expressing L858R/T790M/C797S (EGFR-LTC); assay: Growth inhibition (GI50) of Ba/F3 cells expressing L858R/T790M/C797S (EGFR-LTC), Celltiter glo; conditions: Mus musculus, BaF3, 72 h
Procedure, shortened: as §1

[4] = system: parental Ba/F3 cell line; assay: Growth inhibition (GI50) of the parental Ba/F3 cell line (not introduced with EGFR variants), Celltiter glo; conditions: Mus musculus, BaF3, 72 h, parental Ba/F3 cells
Procedure, shortened: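 Parental Ba/F3 cells (100,000 cells/ml) were treated with 10-point, 4-fold compound dilutions (0.5% DMSO; top stock 2 mM) for 72 h at 37 °C, 5% CO2. Viability was read by CellTiter-Glo; GI50 is the concentration (μM) giving 50% growth inhibition.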

SMILES | GI50 [1] [nM] | GI50 [2] [nM] | GI50 [3] [nM] | GI50 [4] [nM]
COc1nc(N2CCNCC2)ccc1Nc1ncc(Cl)c(Nc2ccc3nccnc3c2P(C)(C)=O)n1 [Example 128, (6-((5-chloro-2-((2-methoxy-6-(piperazin-1-yl)pyridin-3-yl)amino)pyrimidin-4-yl)amino)quinoxalin-5-yl)dimethylphosphine oxide] | 2000 to 10000 | 500 to 2000 | 500 to 2000 | 2000 to 10000
COc1nc(N2CCC(N3CCN(C)CC3)CC2)ccc1Nc1ncc(Cl)c(Nc2ccc3nccnc3c2NS(C)(=O)=O)n1 [Example 132, N-(6-((5-chloro-2-((2-methoxy-6-(4-(4-methylpiperazin-1-yl)piperidin-1-yl)pyridin-3-yl)amino)pyrimidin-4-yl)amino)quinoxalin-5-yl)methanesulfonamide] | 500 to 2000 | 100 to 500 | 100 to 500 | 500 to 2000
COc1cc(N2CCC(N3CCN(C)CC3)CC2)ccc1Nc1ncc(Cl)c(Nc2ccc3nccnc3c2NS(C)(=O)=O)n1 [Example 133, N-(6-((5-chloro-2-((2-methoxy-4-(4-(4-methylpiperazin-1-yl)piperidin-1-yl)phenyl)amino)pyrimidin-4-yl)amino)quinoxalin-5-yl)methanesulfonamide] | 500 to 2000 | 100 to 500 | 100 to 500 | 500 to 2000
COc1nc(N2C[C@@H](C)N(C)[C@@H](C)C2)ccc1Nc1ncc(Cl)c(Nc2ccc3nccnc3c2NS(C)(=O)=O)n1 [Example 135, N-(6-((5-chloro-2-((2-methoxy-6-((3S,5R)-3,4,5-trimethylpiperazin-1-yl)pyridin-3-yl)amino)pyrimidin-4-yl)amino)quinoxalin-5-yl)methanesulfonamide] | 500 to 2000 | 100 to 500 | 100 to 500 | 500 to 2000

Now from value to compound, other results behind:

GI50 [1] [nM] | GI50 [2] [nM] | GI50 [3] [nM] | SMILES | GI50 [4] [nM]
100 to 500 | 25 to 100 | 100 to 500 | CN1CCN(C2CCN(c3ccc(Nc4ncc(Cl)c(Nc5ccc6nccnc6c5P(C)(C)=O)n4)cc3F)CC2)CC1 [Example 125, (6-((5-chloro-2-((3-fluoro-4-(4-(4-methylpiperazin-1-yl)piperidin-1-yl)phenyl)amino)pyrimidin-4-yl)amino)quinoxalin-5-yl)dimethylphosphine oxide] | 100 to 500
2000 to 10000 | 100 to 500 | 500 to 2000 | COc1nc(N2C[C@@H](C)N(C)[C@@H](C)C2)ccc1Nc1ncc(Cl)c(Nc2ccc3nccnc3c2P(C)(C)=O)n1 [Example 126, (6-((5-chloro-2-((2-methoxy-6-((3S,5R)-3,4,5-trimethylpiperazin-1-yl)pyridin-3-yl)amino)pyrimidin-4-yl)amino)quinoxalin-5-yl)dimethylphosphine oxide] | 2000 to 10000
> 10000 | 2000 to 10000 | 2000 to 10000 | COc1nc(N2CCC(N(C)C)C2)ccc1Nc1ncc(Cl)c(Nc2ccc3nccnc3c2P(C)(C)=O)n1 (stereo not drawn) [Example 127, (6-((5-chloro-2-((6-(3-(dimethylamino)pyrrolidin-1-yl)-2-methoxypyridin-3-yl)amino)pyrimidin-4-yl)amino)quinoxalin-5-yl)dimethylphosphine oxide] | > 10000
2000 to 10000 | 2000 to 10000 | 2000 to 10000 | COc1nc(N2CCS(=O)(=O)CC2)ccc1Nc1ncc(Cl)c(Nc2ccc3nccnc3c2P(C)(C)=O)n1 [Example 129, 4-(5-((5-chloro-4-((5-(dimethylphosphoryl)quinoxalin-6-yl)amino)pyrimidin-2-yl)amino)-6-methoxypyridin-2-yl)thiomorpholine 1,1-dioxide] | > 10000
500 to 2000 | 100 to 500 | 100 to 500 | COc1cc(N2CCC(N3CCN(C)CC3)CC2)c(Cl)cc1Nc1ncc(Cl)c(Nc2ccc3nccnc3c2NS(C)(=O)=O)n1 [Example 136, N-(6-((5-chloro-2-((5-chloro-2-methoxy-4-(4-(4-methylpiperazin-1-yl)piperidin-1-yl)phenyl)amino)pyrimidin-4-yl)amino)quinoxalin-5-yl)methanesulfonamide] | 500 to 2000
